The subject of data set [1] is human hepatic stellate cells (HSC). Briefly: IC50 response of hepatic stellate cells to Erlotinib, XTT assay. As to conditions: HSC on fibrotic or normal soluble ECM or plastic, 72 hours with drug. The class given is cell-based. Here is the method:
Methods: Primary human hepatocytes, HepG2 cells (human hepatocarcinoma cell type commonly used to model hepatocytes), and human hepatic stellate cells (HSC) were cultured for up to 7 days on normal or fibrotic human liver matrix scaffolds, Matrigel, collagen I hydrogels, and/or tissue culture plates (plastic) with or without collagen I coating.
HSCs differentially expressed fibrosis-related genes ACTA2, COL1A1 LOXL2 and PDGFR2 in liver scaffolds versus tissue plastic and Coll coated plates (FIG. 11B). […] Although morphologic similarities were observed between HSC cultured in fibrotic and normal liver ECM scaffolds, morphology differed from HSC cultured on artificial substrates (FIG. 11C). […] To test whether HSC cultured on different ECM respond differently to drug treatment then cells grown in standard 2D we measured the IC50 response of HSC to Erlotinib, an inhibitor of the epidermal growth factor receptor (EGFR) tyrosine, used for the treatment for several cancers and currently is in clinical trials for the treatment of hepatocarcinomatous originating from cirrhotic livers (FIG. 11F). 5000 cells were plated on 96 wells on fibrotic or normal ECM soluble ECM and on plastic. 24 hours later Erlotinib or DMSO vehicle in different concentrations was added. Cells were grown with drugs for 72 hours (with media+drug replenished every day). Cell number were assed using a standard XTT assay.
A general note: Tetrazolium assays rely on reduction of a dye to a coloured formazan, in cell work by metabolically active cells.

The test system of data set [2] is Normal human pulmonary fibroblasts. Briefly: Proliferation and myofibroblast differentiation assay in fibrotic human lung ECM hydrogel. The class given is cell-based. Here is the method: Normal human pulmonary fibroblasts were cultured in fibrotic human lung ECM hydrogel for up to 5 days and subjected to live cell imaging with CellTracker™ red, immunofluorescence imaging in multi-well plates, and a common cell-based proliferation assay. Cells were cultured in fibrotic lung ECM hydrogel for 2 days, then TGFβ1 (5 nM) was added to induce myofibroblast differentiation, along with 2.7 mM Pirfenidone (FDA-approved gold standard anti-fibrotic drug) or DMSO vehicle ([…]) control for […] prior to assay readouts on day 5. […] After 48 hours, 1standard immunofluorescence staining was performed in situ in 96-well plates. Fibroblasts expressed vimentin, αSMA, and proliferation marker Ki67 (white arrows, FIG. 21B).

Data set [3] has as its system Normal HSC. Description: Ki67 immunofluorescence imaging of HSC in fibrotic human liver ECM hydrogel. Conditions: for Ki67 positive cells after Pirfenidone treatment: 2.7 mM Pirfenidone; for proliferating Ki67+ cells (change): fibrotic liver ECM hydrogel, TGFβ1 25 nM, Pirfenidone 2.7 mM, readout day 5. The class given is cell-based. Here is the method:
(§1) Normal HSC were cultured in fibrotic human liver ECM hydrogel for up to 5 days. Cells were cultured in fibrotic liver ECM hydrogel for 2 days, then TGFβ1 (25 nM) was added to induce activation, along with 2.7 mM Pirfenidone (FDA-approved gold standard anti-fibrotic drug) or DMSO vehicle (1%) control for 3 days prior to assay readouts on day 5. Cell-based proliferation assay, immunofluorescence imaging in multi-well plates, and Elisa for ProCollagen1 were performed. […] Conclusions: We confirmed compatibility of normal & fibrotic liver ECM hydrogel with common analytical techniques & assays used in early-stage drug development including discovery, screening, target validation.

For data set [4], the system named is Normal HSC. Description: Cell-based proliferation assay of HSC in fibrotic human liver ECM hydrogel. Conditions: TGFβ1 25 nM, Pirfenidone 2.7 mM, 3 days, readout day 5. As to the method: as §1
Data set [5] concerns pulmonary fibroblasts. Description: Gene expression of fibroblasts in IPF matrix scaffolds treated with antifibrotic agent. In kind it is cell-based, human.
Data set [6] deals with pulmonary fibroblasts. Briefly: Growth curves of pulmonary fibroblasts in IPF and normal lung matrix scaffolds exposed to antifibrotic agent. The class given is cell-based, human.
Data set [7] is described as follows: Diffusivity of fluorescent trackers through liver ECM hydrogels. In kind it is physicochemical. An excerpt: Physiochemical characterizations of fibrotic and normal human liver matrix hydrogels.
Setting [8] is: fibroblasts in IPF matrix scaffolds.
Setting [9] is: fibrotic lung ECM scaffolds compared to tissue culture plastic.

We go through five compounds from patent US20220267720A1, “FIBROSIS-SPECIFIC CELL CULTURE SUBSTRATE AND METHODS OF USE” (Xylyx Bio, Inc., priority 2019, published 2022).

`C#Cc1cccc(Nc2ncnc3cc(OCCOC)c(OCCOC)cc23)c1` [Erlotinib]: the “IC50 response of HSC to Erlotinib” value in data set [1] was “lower for cells on normal ECM compared to fibrotic ECM and higher for plastic cultured cells”.
In the case of `Cc1ccc(=O)n(-c2ccccc2)c1` [Pirfenidone], in data set [2] (2.7 mM Pirfenidone with TGFβ1 5 nM, readout day 5), the “proliferation of lung fibroblasts” value is “decrease proliferation”. Further, the “Ki67 positive cells after Pirfenidone treatment” value with Normal HSC [3] (HSC on liver ECM) is on record as ~20%; with Normal HSC [3] (HSC on plastic) it was “over 50%”. Besides, the “proliferating Ki67+ cells (change)” value with Normal HSC [3] was “significantly reduced”. Moreover, the cell proliferation entry with Normal HSC [4] is “slowed cell proliferation”.
Take `Cc1ccc(-c2ccc3c(ccc4sc5c(c43)NC[C@@H](C)NC5=O)n2)cn1` [PF3644022]: in the data set on pulmonary fibroblasts [5] (setting [8]), the “expression of ACTA2” value was “consistently reduced”, the “expression of COL1A1” value is listed as “consistently reduced” and the “expression of YAP1” value is recorded as “No significant differences”. Moreover, the “expression of genes associated with ECM production” value with pulmonary fibroblasts [5] (setting [9]) is on record as “downregulation”. The “growth of fibroblasts, sensitivity and drug response” value in the data set with pulmonary fibroblasts [6] (fibroblasts in IPF matrix scaffolds versus normal lung matrix scaffolds) is “greater sensitivity and drug response”. In the data set on pulmonary fibroblasts [6] (fibroblasts in normal lung matrix scaffolds, after 6 days), the “growth of fibroblasts versus untreated cells” value was “not significantly different from untreated cells”. Besides, the “sensitivity and drug response” value in the data set on pulmonary fibroblasts [6] (setting [9]) was “greater sensitivity and drug response”.
As to `CC1=CC(C)(C)N(C)c2cc3[o+]c4cc5c(cc4c(-c4cc(NC(=O)c6ccc(CCl)cc6)ccc4C(=O)[O-])c3cc21)C(C)=CC(C)(C)N5C.CC1=CC(C)(C)N(C)c2cc3[o+]c4cc5c(cc4c(-c4ccc(NC(=O)c6ccc(CCl)cc6)cc4C(=O)[O-])c3cc21)C(C)=CC(C)(C)N5C` [CellTracker Red CMTPX], the diffusion rate in data set [7] is listed as > 2 mm h^−1.
For “TGFβ: transforming growth factor beta, added to induce activation / myofibroblast differentiation”, in data set [2] (TGFβ1 5 nM), the αSMA entry is “increased”. In the data set with Normal HSC [3], the “proliferating Ki67+ cells (change)” value was “significantly changed”. Also, in the data set with Normal HSC [4], the cell proliferation entry is recorded as “accelerated cell proliferation”.
